The numbers were not newly measured in article PMC7089779 (ChemMedChem, 2018), which cites them from elsewhere.

Usually CC50 stands for the concentration at which the toxic effect on the cells reaches its halfway point. By IC50 is commonly meant the midpoint of a concentration-inhibition curve.

Structures are written as SMILES.

Series [1] relates to HepG2 cell line. The following applies: read-out: CC50 HepG2; cited from earlier work.
The conditions of series [2]: cited from earlier work.
The subject of series [3] is T. brucei brucei trypomastigotes NTR over-expressing strain. Conditions: wild type IC50 / NTR over-expressing IC50; cited from earlier work.
Series [4] deals with L. infantum axenic amastigotes. The following applies: read-out: IC50 L. infantum axenic amastigotes; cited from earlier work.
Series [5] deals with T. brucei brucei trypomastigotes wild type strain. Conditions: read-out: IC50 T. brucei brucei trypomastigotes wild type strain; cited from earlier work.
The test system of series [6] is T. brucei brucei trypomastigotes. The following applies: cited from earlier work.

For `O=c1[nH]c2c([N+](=O)[O-])cccc2cc1Br` [Initial Hit, 3-bromo-8-nitroquinolin-2(1H)-one], in series [1], the cytotoxic concentration (CC50) was 92 ± 13 µM. Moreover, the “genotoxicity in the comet assay” value in series [2] is listed as “not genotoxic”. For the same compound, in series [3], the Fold change is given as 4.5. Besides, the 50% inhibitory concentration (IC50) in series [4] is 7.1 ± 1.5 µM; in series [5], 17.7 ± 1 µM; in series [6] (read-out: IC50 T. brucei brucei trypomastigotes), 1.9 ± 0.44 µM. Moreover, the “Antitrypanosomal selectivity Index” value in series [6] (CC50 HepG2 / IC50 T. brucei brucei) is 48.
